{"source": "patent US20180200275A1", "about": "“METHOD AND THE USE TO IMPROVE ORAL ABSORPTION OF NICOTINAMIDE AND NICOTINAMIDE RIBOSIDE” (Better Standing Company Inc., priority 2017, published 2018)", "key": {"[1]": {"conditions": "cited from earlier work"}, "[2]": {"experiment": "effects noted by a person (the inventor) after oral consumption", "format": "in vivo, human", "conditions": "50 mg nicotinamide or 125 mg N-Ribosylnicotinamide chloride with water only, one person"}}}
{"smiles": "NC(=O)c1cccnc1", "note": "[nicotinamide, 3-pyridinecarboxamide]", "values": [{"measurement": "pKa of the pyridine ring nitrogen atom", "setting": "[1]", "result": 4.14}, {"measurement": "effects of consuming shortly before bed with water only", "setting": "[2]", "result": "no discernible effects"}]}
